Results on ten compounds are retold here after patent US7691842B2, “Tricyclic 6-alkylidene-penems as β-lactamase inhibitors” (Wyeth LLC, priority 2002, dated 2010).

Assay [1] has as its target class A β-lactamase TEM-1 (Escherichia coli, UniProt P62593). The experiment in a line: β-Lactamase inhibition, IC50 determination (nitrocefin, spectrophotometric). The format is biochemical, E. Coli. Here is the method:
(§1) IC50 Determination for the Penem Inhibitor
(§2) β-Lactamase inhibitory activity of the penem inhibitors was determined spectrophotometrically as described by Bush et al., [Bush, K., Macalintal, C., Rasmussen, B. A., Lee, V. and Yang, Y. Antimicrobial Agents and Chemotherapy 1993, 37, 851]. Homogeneously purified class A β-lactamases TEM-1 from E. Coli and Imi-1 from Enterobacter cloacae, class B enzyme CcrA from Bacteroides fragilis and class C enzyme AmpC from Enterobacter cloaca were employed in the assay. The enzyme concentrations for TEM-1, Imi-1, CcrA and AmpC were 4.3, 7.1, 1.2 and 2.1 nM, respectively. A wide range of inhibitor concentrations were prepared in 50 mM PO4, pH 7.0 to include the possible IC50 values. The substrate used to initiate the enzyme reaction was nitrocefin at 50 μg/ml in the same buffer as the inhibitor. Initially the enzyme and inhibitor (20 μl each) were preincubated for 10 minutes at 25° C. prior to the addition of 160 μl volume of nitrocefin. Initial rates of hydrolysis were monitored for 5 minutes at 495 nm using a Molecular Devices Spectra Max 250 with kinetic protocol of SoftMax Program. Readings from the Spectra Max 250 were exported and transferred to Microsoft Excel. The percent of inhibition of each inhibitor concentration was calculated based on the control enzyme activity. The inhibitor concentration that caused a 50% reduction in the enzymatic activity (IC50) was determined graphically.

The target of assay [2] is class A β-lactamase Imi-1 (Enterobacter cloacae, UniProt Q46991). The description is as above. The format is biochemical. Here is the method:
as §1, §2

Assay [3] deals with class B enzyme CcrA (Bacteroides fragilis, UniProt P25910). Described as above. The format is biochemical. The note with it: enzyme 1.2 nM; 10 min preincubation at 25° C.; nitrocefin 50 μg/ml; 50 mM PO4, pH 7.0; read-out: IC50 (nM) Class B Ccr. As for the experimental part:
as §1, §2

Assay [4] has as its target class C enzyme AmpC (Enterobacter cloacae, UniProt P05364). Briefly: biochemical. The arrangement: species or system Enterobacter cloaca. As for the experimental part: as §1, §2
The subject of assay [5] is E. Cloacae GC1477 (Ampc). The experiment in a line: Antimicrobial susceptibility testing, microbroth dilution MIC of piperacillin + inhibitor. Type of assay: cell-based. The conditions noted are these: piperacillin combined with constant 4 μg/ml inhibitor; Inc: 35° C. for 18 hours. Here is the method: (§3) Antimicrobial susceptibility testing. The in vitro activities of the antibiotics were determined by the microbroth dilution method as recommended by the National Committee for Clinical Laboratory Standards (NCCLS). (NCCLS. 2000. Methods for Dilution Antimicrobial Susceptibility Tests for Bacteria That Grow Aerobically; Approved Standards: M7-A5, vol. 19. National Committee for Clinical Laboratory Standards, Villanova, Pa.). Mueller-Hinton it broth (MHBII)(BBL Cockeysville, Md.), was used for the testing procedure. Microtiter plates containing 50 μl per well of two-fold serial dilutions of piperacillin combined with a constant amount (4 μg/ml) of a B-lactamase inhibitor (final concentration) were inoculated with 50 μl of inoculum to yield the appropriate density (10^5 CFU/ml) in 100 μl. The plates were incubated for 18-22 hours at 35° C. in ambient air.
(Dilution methods test growth across graded concentrations, often in twofold steps.)

In assay [6] the test system is E. Coli GC2203. Described as above. Type of assay: cell-based. The note with it: piperacillin combined with constant 4 μg/ml inhibitor; Inc: 35° C. for 18 hours. Here is the method: as §3
Assay [7] relates to E. Coli GC2844. The assay is described as above. Type of assay: cell-based. The conditions noted are these: piperacillin combined with constant 4 μg/ml inhibitor; Inc: 35° C. for 18 hours. Here is the method: as §3
Assay [8] concerns E. Coli GC2847 (TEM-1). The assay is described as above. Type of assay: cell-based. The conditions noted are these: piperacillin combined with constant 4 μg/ml inhibitor; Inc: 35° C. for 18 hours. Here is the method: as §3
Assay [9] has as its system E. Coli GC2894 (Ampc). The description is as above. Type of assay: cell-based. The note with it: piperacillin combined with constant 4 μg/ml inhibitor; Inc: 35° C. for 18 hours. As for the experimental part:
as §3

Assay [10] relates to E. Coli GC2920 (IRT-2). The assay is described as above. The format is cell-based. The conditions noted are these: piperacillin combined with constant 4 μg/ml inhibitor; Inc: 35° C. for 18 hours. As for the experimental part:
as §3

In assay [11] the test system is P. aeruginos GC1764 (Ampc). The assay is described as above. The format is cell-based. The note with it: piperacillin combined with constant 4 μg/ml inhibitor; Inc: 35° C. for 18 hours. As for the experimental part: as §3
The subject of assay [12] is S. Marcescens GC1781 Sme-1 + Ampc. The assay is described as above. Type of assay: cell-based. The note with it: piperacillin combined with constant 4 μg/ml inhibitor; Inc: 35° C. for 18 hours. As for the experimental part: as §3
Setting [13] is: enzyme 4.3 nM, 10 min preincubation at 25° C., nitrocefin 50 μg/ml, 50 mM PO4, pH 7.0, read-out: IC50 (nM) Class A TEM-1.
Where [14] appears, read: enzyme 7.1 nM, 10 min preincubation at 25° C., nitrocefin 50 μg/ml, 50 mM PO4, pH 7.0, read-out: IC50 (nM) Class A Imi.
[15] abbreviates: enzyme 2.1 nM, 10 min preincubation at 25° C., nitrocefin 50 μg/ml, 50 mM PO4, pH 7.0, read-out: IC50 (nM) Class C AmpC.

Counter-ions that a name gives are not always drawn. Like-named read-outs stand apart in the source and are kept apart here.

Chain of class B enzyme CcrA (P25910 19-249): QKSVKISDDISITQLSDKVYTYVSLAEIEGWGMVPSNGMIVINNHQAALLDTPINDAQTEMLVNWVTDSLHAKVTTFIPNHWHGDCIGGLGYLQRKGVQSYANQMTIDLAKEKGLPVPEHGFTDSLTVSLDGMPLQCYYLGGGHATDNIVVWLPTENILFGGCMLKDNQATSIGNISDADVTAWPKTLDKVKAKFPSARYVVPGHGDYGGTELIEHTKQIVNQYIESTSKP
Chain of class A β-lactamase Imi-1 (Q46991 entry or part of it): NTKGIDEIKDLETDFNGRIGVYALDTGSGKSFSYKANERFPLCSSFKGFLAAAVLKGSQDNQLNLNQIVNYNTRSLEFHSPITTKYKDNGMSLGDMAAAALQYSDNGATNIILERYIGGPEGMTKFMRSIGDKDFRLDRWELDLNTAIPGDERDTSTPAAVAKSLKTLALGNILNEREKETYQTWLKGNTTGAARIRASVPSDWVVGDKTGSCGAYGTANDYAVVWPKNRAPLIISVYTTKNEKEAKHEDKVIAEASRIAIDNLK
Chain of class C enzyme AmpC (P05364 21-381): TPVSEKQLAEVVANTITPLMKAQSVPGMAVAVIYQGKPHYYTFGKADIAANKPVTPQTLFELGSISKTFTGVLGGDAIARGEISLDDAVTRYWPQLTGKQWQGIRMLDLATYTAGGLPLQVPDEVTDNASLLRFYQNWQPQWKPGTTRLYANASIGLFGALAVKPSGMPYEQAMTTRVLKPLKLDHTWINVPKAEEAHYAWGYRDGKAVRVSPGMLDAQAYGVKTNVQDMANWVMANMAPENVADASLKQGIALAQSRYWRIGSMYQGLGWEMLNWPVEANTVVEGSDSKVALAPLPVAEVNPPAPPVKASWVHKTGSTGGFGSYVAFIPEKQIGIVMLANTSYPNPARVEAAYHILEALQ
Chain of class A β-lactamase TEM-1 (P62593 24-286 limits assumed): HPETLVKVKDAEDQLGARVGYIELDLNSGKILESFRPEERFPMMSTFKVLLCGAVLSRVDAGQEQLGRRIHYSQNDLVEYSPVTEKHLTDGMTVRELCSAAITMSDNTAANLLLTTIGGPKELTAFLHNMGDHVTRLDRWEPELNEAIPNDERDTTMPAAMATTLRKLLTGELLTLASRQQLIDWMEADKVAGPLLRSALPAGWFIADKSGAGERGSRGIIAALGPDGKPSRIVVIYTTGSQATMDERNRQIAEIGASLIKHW

As a reminder, the IC50 is the concentration that gives 50% inhibition. Regarding `O=C(O)C1=CS[C@@H]2/C(=C\c3cn4c(cnc5ccccc54)n3)C(=O)N12` [Example 6, (5R),(6Z)-6-(Imidazo[1,2-a]quinoxaline-2-ylmethylene)-7-oxo-4-thia-1-azabicyclo[3.2.0]hepto-2-ene-2-carboxylic acid, sodium salt], the IC50 is 2.5 nM in assay [1], 210 nM in assay [2], 350 nM in assay [3] and 1.2 nM in assay [4].

For `O=C(O)C1=CS[C@@H]2/C(=C/c3ccc4c(c3)N(Cc3ccccc3)C(=O)c3ccccc3O4)C(=O)N12` [Example 9, (5R,6E)-6-[(10-benzyl-ii-oxo-10,11-dihydrodibenzo[b,f][1,4]oxazepin-8-yl)methylene]-7-oxo-4-thia-1-azabicyclo[3.2.0]hept-2-ene-2-carboxylic Acid], the IC50 in [1] came to 3.5 nM; in assay [2] it was 3600 nM; in assay [3], 220 nM; in assay [4] it was 4.5 nM.

On to `Cc1cccc2sc3nc(/C=C4/C(=O)N5C(C(=O)O)=CS[C@H]45)cn3c12` [Example 13], for which the IC50 amounted to 8.7 nM in assay [1], 102 nM in assay [2], 228 nM in [3] and 1.6 nM in assay [4].

With `O=C(O)C1=CS[C@@H]2/C(=C\c3cn4c(nc5ccccc54)s3)C(=O)N12` [Example 17, (5R),(6Z)-7-oxo-6-([1,3]thiazolo[3,2-a]benzimidazol-2-ylmethylene)-4-thia-1-azabicyclo[3.2.0]hept-2-ene-2-carboxylic acid], the “Minimal Inhibitory Concentration E. Cloacae GC1477 (Ampc)” value in assay [5] was greater than 64 µg/mL. Besides, in [6], the “Minimal Inhibitory Concentration E. Coli GC2203” value was 2 µg/mL. The “Minimal Inhibitory Concentration E. Coli GC2844” value in assay [7] turned out to be 2 µg/mL. Moreover, the “Minimal Inhibitory Concentration E. Coli GC2847 (TEM-1)” value in assay [8] stood at 64 µg/mL. For the same compound, the “Minimal Inhibitory Concentration E. Coli GC2894 (Ampc)” value in [9] is greater than 64 µg/mL. Further, the “Minimal Inhibitory Concentration E. Coli GC2920 (IRT-2)” value in assay [10] was determined as 4 µg/mL. In addition, the “Minimal Inhibitory Concentration P. aeruginos GC1764 (Ampc)” value in [11] was determined as 32 µg/mL. Further, in [12], the “Minimal Inhibitory Concentration S. Marcescens GC1781 Sme-1 + Ampc” value turned out to be 8 µg/mL.

On to `O=C(O)C1=CS[C@@H]2/C(=C\c3cn4nc5c(c4s3)CCC5)C(=O)N12` [Example 18, (5R),(6Z)-6-(7,8-dihydro-6H-cyclopenta[3,4]pyrazolo[5,1-b][1,3]thiazol-2-ylmethylene)-7-oxo-64-thia-1-azabicyclo[3.2.0]hept-2-ene-2-carboxylic acid], for which, in assay [5], the “Minimal Inhibitory Concentration E. Cloacae GC1477 (Ampc)” value was greater than 64 µg/mL. For the same compound, in assay [6], the “Minimal Inhibitory Concentration E. Coli GC2203” value was determined as 4 µg/mL. Further, the “Minimal Inhibitory Concentration E. Coli GC2844” value in assay [7] turned out to be 2 µg/mL. Moreover, the “Minimal Inhibitory Concentration E. Coli GC2847 (TEM-1)” value in [8] was greater than 64 µg/mL. The “Minimal Inhibitory Concentration E. Coli GC2894 (Ampc)” value in assay [9] was greater than 64 µg/mL. In assay [10], the “Minimal Inhibitory Concentration E. Coli GC2920 (IRT-2)” value worked out at 4 µg/mL. Also, the “Minimal Inhibitory Concentration P. aeruginos GC1764 (Ampc)” value in [11] is 64 µg/mL. The “Minimal Inhibitory Concentration S. Marcescens GC1781 Sme-1 + Ampc” value in assay [12] stood at 4 µg/mL.

As to `Cn1c2ccccc2n2cc(/C=C3/C(=O)N4C(C(=O)O)=CS[C@H]34)nc12` [Example 20, (5R),(6Z)-8-[(9-methyl-9H-imidazo[1,2-a]benzimidazol-2-yl)methylene]-7-oxo-4-thia-1-azabicyclo[3.2.0]hept-2-ene-2-carboxylic acid], the “Minimal Inhibitory Concentration E. Cloacae GC1477 (Ampc)” value in [5] is greater than 64 µg/mL. Also, the “Minimal Inhibitory Concentration E. Coli GC2203” value in assay [6] turned out to be 2 µg/mL. For the same compound, the “Minimal Inhibitory Concentration E. Coli GC2844” value in assay [7] stood at 4 µg/mL. Moreover, the “Minimal Inhibitory Concentration E. Coli GC2847 (TEM-1)” value in assay [8] was greater than 64 µg/mL. The “Minimal Inhibitory Concentration E. Coli GC2894 (Ampc)” value in assay [9] was 32 µg/mL. Besides, in [10], the “Minimal Inhibitory Concentration E. Coli GC2920 (IRT-2)” value is 4 µg/mL. In addition, the “Minimal Inhibitory Concentration P. aeruginos GC1764 (Ampc)” value in assay [11] came out at 32 µg/mL. Besides, the “Minimal Inhibitory Concentration S. Marcescens GC1781 Sme-1 + Ampc” value in assay [12] was 2 µg/mL.

As to `O=C([O-])C1=CS[C@@H]2/C(=C\c3cc4c(s3)-c3cccnc3SC4)C(=O)N12.[Na+]` [Example 21, (5R,6Z)-7-oxo-6-(4H-thieno[2′,3′:45]thiopyrano[2,3-b]pyridin-2-ylmethylene)-4-thia-1-azabicyclo[3.2.0]hept-2-ene-2-carboxylic acid (Sodium salt)], the IC50 worked out at 11 nM in assay [1] (setting [13]), 580 nM in assay [2] (setting [14]), 210 nM in assay [3] and 3.7 nM in [4] (setting [15]). The “Minimal Inhibitory Concentration E. Cloacae GC1477 (Ampc)” value in [5] was greater than 64 µg/mL. The “Minimal Inhibitory Concentration E. Coli GC2203” value in [6] came out at 2 µg/mL. Besides, in assay [7], the “Minimal Inhibitory Concentration E. Coli GC2844” value was 2 µg/mL. Also, the “Minimal Inhibitory Concentration E. Coli GC2847 (TEM-1)” value in assay [8] was greater than 64 µg/mL. For the same compound, the “Minimal Inhibitory Concentration E. Coli GC2894 (Ampc)” value in [9] was 32 µg/mL. The “Minimal Inhibitory Concentration E. Coli GC2920 (IRT-2)” value in assay [10] was found to be 4 µg/mL. Further, in [11], the “Minimal Inhibitory Concentration P. aeruginos GC1764 (Ampc)” value is 64 µg/mL. Besides, the “Minimal Inhibitory Concentration S. Marcescens GC1781 Sme-1 + Ampc” value in [12] came out at 2 µg/mL.

Take `COc1nc2nc(/C=C3/C(=O)N4C(C(=O)O)=CS[C@H]34)cn2c2c1CCC2` [Example 26, (5R,6Z)-6-[(5-methoxy-7,8-dihydro-6H-cyclopenta[e]imidazo[1,2-a]pyrimidin-2-yl)methylene]-7-oxo-4-thia-1-azabicyclo[3.2.0]hept-2-ene-2-carboxylic acid, sodium salt]: the IC50 came out at 48 nM in assay [1], 63 nM in [2], 420 nM in assay [3] and 10 nM in assay [4].

In the case of `O=C(O)C1=CS[C@@H]2/C(=C\c3cc4oc5c(n4n3)CCOC5)C(=O)N12` [Example 31, (5R,6Z)-6-(7,8-dihydro-5H-pyrano[4,3-d]pyrazolo[5,1-b][1,3]oxazol-2-ylmethylene)-7-oxo-4-thia-1-azabicyclo[3.2.0]hept-2-ene-2-carboxylic acid, sodium salt], the IC50 in assay [1] worked out at 4.3 nM; in [2], 140 nM; in assay [3], 130 nM; in assay [4], 4 nM.

Take `CCOC(=O)N1CCc2c(oc3cc(/C=C4/C(=O)N5C(C(=O)[O-])=CS[C@H]45)nn23)C1.[Na+]` [Example 33, (5R,6Z)-6-{[6-(ethoxycarbonyl)-5,6,7,8-tetrahydropyrazolo[5′,1′:2,3][1,3]oxazolo[5,4-c]pyridin-2-yl]methylene}-7-oxo-4-thia-1-1-azabicyclo[3.2.0]hept-2-ene-2-carboxylic acid, sodium salt]: the half-maximal inhibitory concentration (IC50) in assay [1] (setting [13]) was 10 nM; in assay [2] (setting [14]), 360 nM; in [3] it was 160 nM; in [4] (setting [15]), 140 nM. The “Minimal Inhibitory Concentration E. Cloacae GC1477 (Ampc)” value in assay [5] was greater than 64 µg/mL. In assay [6], the “Minimal Inhibitory Concentration E. Coli GC2203” value amounted to 2 µg/mL. Moreover, the “Minimal Inhibitory Concentration E. Coli GC2844” value in [7] came out at 2 µg/mL. In addition, the “Minimal Inhibitory Concentration E. Coli GC2847 (TEM-1)” value in [8] is 64 µg/mL. The “Minimal Inhibitory Concentration E. Coli GC2894 (Ampc)” value in assay [9] is 64 µg/mL. Besides, the “Minimal Inhibitory Concentration E. Coli GC2920 (IRT-2)” value in assay [10] is 4 µg/mL. In addition, the “Minimal Inhibitory Concentration P. aeruginos GC1764 (Ampc)” value in assay [11] was greater than 64 µg/mL. Also, in assay [12], the “Minimal Inhibitory Concentration S. Marcescens GC1781 Sme-1 + Ampc” value was 2 µg/mL.
